Reference: ChEMBL document CHEMBL1201862, “PubChem BioAssay data set” (2004)
Activity calls are given as the source filed them.

Legend:
Streptococcus = experiment: Group A Streptococcus viability loss, dose response, counter-screen for streptokinase expression inhibitor project, luminescence, BacTiterGlo (AID 1915); format: functional, organism-based;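 note: potency for reduction of bacterial viability or growth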
[1] = cytotoxicity toward NIH3T3 fibroblasts, dose response, counter-screen, cell-based, ATP luminescence, mouse fibroblasts (AID 2010); format: functional;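 note: cells exposed to compound for about 90 hours before reading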
[2] = biological target: T1, Dual specificity protein phosphatase 6 (Rattus norvegicus, UniProt Q64346); experiment: MKP-3 phosphatase inhibitors, primary screen, biochemical, rat enzyme, in vitro (AID 425)
T1 sequence (Q64346 whole entry): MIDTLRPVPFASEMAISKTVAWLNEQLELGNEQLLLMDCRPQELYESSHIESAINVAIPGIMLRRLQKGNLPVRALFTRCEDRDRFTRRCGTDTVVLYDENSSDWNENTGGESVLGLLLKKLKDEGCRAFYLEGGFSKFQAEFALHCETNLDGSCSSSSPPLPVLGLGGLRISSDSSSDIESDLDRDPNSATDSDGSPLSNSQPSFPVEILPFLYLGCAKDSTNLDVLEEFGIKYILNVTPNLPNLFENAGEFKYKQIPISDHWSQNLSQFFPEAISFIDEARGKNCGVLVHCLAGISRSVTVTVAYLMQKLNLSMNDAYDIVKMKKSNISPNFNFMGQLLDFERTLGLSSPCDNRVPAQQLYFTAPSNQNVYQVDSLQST

[3] = biological target: Tyrosyl-DNA phosphodiesterase 2 (Homo sapiens, UniProt O95551); experiment: human TDP2 enzyme inhibitors, dose response, biochemical, epi absorbance, IC50 (AID 743297)
Chain of Tyrosyl-DNA phosphodiesterase 2 (O95551 whole entry): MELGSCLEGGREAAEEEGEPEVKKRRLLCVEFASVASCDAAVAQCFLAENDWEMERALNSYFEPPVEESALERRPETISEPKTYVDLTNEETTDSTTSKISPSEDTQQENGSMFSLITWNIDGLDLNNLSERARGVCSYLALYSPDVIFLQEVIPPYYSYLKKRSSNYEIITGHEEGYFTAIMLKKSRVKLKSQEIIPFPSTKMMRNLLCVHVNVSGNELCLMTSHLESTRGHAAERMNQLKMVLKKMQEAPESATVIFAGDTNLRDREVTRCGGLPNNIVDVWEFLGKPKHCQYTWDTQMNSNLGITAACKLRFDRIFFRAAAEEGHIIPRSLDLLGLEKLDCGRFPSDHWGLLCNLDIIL

[4] = biological target: T2, Sentrin-specific protease 8 (Homo sapiens, UniProt Q96LD8); format: functional;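 note: luminescence read-out of SENP8 inhibition, dose-response confirmation following an ultra-high-throughput screen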
T2 sequence (Q96LD8 whole entry): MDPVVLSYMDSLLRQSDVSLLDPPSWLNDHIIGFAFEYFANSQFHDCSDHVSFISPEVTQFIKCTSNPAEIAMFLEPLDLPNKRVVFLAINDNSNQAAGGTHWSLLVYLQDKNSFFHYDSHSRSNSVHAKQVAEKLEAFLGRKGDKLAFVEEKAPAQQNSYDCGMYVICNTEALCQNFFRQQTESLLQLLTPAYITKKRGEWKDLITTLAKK

Aminopeptidase N = biological target: T3, Aminopeptidase N (Plasmodium falciparum FcB1/Columbia, UniProt O96935); experiment: P. falciparum M1AAP inhibitors, biochemical, fluorogenic H-Leu-NHMec substrate, 1536-well (AID 1445); parameters: species or system Plasmodium falciparum 3D7, 3D7
T3 sequence (O96935 whole entry): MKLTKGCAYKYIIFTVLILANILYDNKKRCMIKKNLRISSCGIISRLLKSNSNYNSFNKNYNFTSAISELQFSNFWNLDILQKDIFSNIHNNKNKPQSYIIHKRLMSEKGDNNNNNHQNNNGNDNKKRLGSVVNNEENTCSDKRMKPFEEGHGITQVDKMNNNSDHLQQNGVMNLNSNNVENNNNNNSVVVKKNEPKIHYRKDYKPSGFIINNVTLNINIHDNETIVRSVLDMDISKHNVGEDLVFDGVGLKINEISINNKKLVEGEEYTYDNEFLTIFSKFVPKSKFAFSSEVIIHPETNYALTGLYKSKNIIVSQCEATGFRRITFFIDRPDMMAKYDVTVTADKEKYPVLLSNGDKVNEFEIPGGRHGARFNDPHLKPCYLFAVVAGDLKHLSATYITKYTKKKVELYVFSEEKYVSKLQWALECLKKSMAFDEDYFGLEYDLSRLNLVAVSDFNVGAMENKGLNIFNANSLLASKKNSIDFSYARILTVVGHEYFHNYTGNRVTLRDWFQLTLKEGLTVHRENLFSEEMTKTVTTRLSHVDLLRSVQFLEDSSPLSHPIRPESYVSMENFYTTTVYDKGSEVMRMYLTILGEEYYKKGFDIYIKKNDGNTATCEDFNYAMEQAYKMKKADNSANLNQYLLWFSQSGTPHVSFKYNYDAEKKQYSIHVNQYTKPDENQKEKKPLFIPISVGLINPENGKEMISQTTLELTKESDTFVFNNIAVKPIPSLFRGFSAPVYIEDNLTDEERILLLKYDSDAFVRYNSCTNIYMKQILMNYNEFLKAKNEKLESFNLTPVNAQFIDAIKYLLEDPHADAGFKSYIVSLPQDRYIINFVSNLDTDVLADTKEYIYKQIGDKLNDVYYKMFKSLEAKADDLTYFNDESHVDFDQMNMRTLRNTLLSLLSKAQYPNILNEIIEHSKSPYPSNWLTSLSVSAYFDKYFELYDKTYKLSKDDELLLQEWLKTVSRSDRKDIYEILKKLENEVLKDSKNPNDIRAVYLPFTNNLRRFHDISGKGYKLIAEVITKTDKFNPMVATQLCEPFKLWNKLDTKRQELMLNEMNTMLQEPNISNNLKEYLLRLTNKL

Caspase-3 = biological target: T4, Caspase-3 (Homo sapiens, UniProt P42574); format: functional;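 note: Dose-response selectivity test against caspase-3 for candidate inhibitors of sentrin-specific proteases (SENPs)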
T4 sequence (P42574 whole entry): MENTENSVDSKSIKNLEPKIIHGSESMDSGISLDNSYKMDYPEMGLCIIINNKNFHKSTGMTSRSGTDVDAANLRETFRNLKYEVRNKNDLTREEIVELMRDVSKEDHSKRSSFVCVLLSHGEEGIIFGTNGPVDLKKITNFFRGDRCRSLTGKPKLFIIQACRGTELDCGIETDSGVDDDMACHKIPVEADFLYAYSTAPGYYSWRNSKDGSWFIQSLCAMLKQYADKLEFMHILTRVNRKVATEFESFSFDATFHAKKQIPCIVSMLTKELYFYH

HepG2 = experiment: HepG2 cell cytotoxicity, dose response, cytotoxicity control, cherry-picks, set 2 (AID 687002); format: functional, cell-based; settings: Homo sapiens
[5] = inhibitors of firefly luciferase expression or activity, dose response, H4 neuroglioma cells, luminescence (AID 1990); format: functional, cell-based
Beta-galactosidase = Beta-galactosidase (Escherichia coli, UniProt Q8VNN2); experiment: PubChem AID 485352; format: functional
Chain of Beta-galactosidase (Q8VNN2 whole entry): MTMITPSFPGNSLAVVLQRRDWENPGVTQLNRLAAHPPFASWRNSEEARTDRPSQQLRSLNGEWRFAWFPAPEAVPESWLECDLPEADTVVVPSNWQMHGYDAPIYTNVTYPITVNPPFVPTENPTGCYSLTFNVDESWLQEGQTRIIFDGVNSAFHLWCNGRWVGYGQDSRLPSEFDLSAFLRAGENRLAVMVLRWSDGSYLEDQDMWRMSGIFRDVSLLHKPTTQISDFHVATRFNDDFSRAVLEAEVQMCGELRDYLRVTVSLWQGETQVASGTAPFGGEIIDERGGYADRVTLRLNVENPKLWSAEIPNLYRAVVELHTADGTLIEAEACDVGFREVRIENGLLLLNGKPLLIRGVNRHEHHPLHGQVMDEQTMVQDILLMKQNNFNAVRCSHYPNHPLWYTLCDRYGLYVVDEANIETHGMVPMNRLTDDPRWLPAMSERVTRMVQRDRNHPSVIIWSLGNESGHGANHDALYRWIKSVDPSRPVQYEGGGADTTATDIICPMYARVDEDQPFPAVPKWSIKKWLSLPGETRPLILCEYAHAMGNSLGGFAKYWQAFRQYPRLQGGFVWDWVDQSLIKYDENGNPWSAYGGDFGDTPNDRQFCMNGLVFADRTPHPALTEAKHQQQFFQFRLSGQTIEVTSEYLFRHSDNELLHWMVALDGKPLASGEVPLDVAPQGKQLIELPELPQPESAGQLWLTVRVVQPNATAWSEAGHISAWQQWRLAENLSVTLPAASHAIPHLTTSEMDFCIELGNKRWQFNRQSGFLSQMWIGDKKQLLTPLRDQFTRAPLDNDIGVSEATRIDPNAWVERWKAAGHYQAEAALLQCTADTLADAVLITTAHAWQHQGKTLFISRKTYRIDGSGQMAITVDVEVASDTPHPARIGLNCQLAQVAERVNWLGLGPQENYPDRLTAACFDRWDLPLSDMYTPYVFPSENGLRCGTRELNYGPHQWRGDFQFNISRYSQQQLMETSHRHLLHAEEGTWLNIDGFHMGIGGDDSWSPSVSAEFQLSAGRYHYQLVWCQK

[6] = Luminescence Cell-Based Dose Response HTS to Identify Inhibitors of 5'UTR Stem-Loop Driven Prion Protein mRNA Translation in H4 Neuroglioblastoma Cells. [Related pubchem assays: 1827 (Project Summary), 1813 (Primary HTS)]; format: functional
[7] = inhibitors of SNCA 5'UTR-driven reporter translation, confirmation, H4 neuroglioma cells, luminescence (AID 1988); format: functional, cell-based
Bcl-2-like protein 10 = biological target: T5, Bcl-2-like protein 10 (Homo sapiens, UniProt Q9HD36); experiment: displacers of TR3 peptide from Bcl-B, primary screen, selectivity assay for Bfl-1 inhibitor project, biochemical, fluorescence polarization, FITC-TR3 peptide (AID 748);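 note: fluorescence polarization from a fluorescein-labelled TR3 peptide binding purified Bcl-B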
T5 sequence (Q9HD36 whole entry): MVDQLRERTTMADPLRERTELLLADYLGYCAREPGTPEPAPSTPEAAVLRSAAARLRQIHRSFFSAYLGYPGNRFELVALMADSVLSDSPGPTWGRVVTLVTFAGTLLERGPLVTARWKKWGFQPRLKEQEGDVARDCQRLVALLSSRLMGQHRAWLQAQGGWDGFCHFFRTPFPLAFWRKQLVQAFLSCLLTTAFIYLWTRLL

[8] = biological target: Induced myeloid leukemia cell differentiation protein Mcl-1 (Homo sapiens, UniProt Q07820); format: functional
Chain of Induced myeloid leukemia cell differentiation protein Mcl-1 (Q07820 whole entry): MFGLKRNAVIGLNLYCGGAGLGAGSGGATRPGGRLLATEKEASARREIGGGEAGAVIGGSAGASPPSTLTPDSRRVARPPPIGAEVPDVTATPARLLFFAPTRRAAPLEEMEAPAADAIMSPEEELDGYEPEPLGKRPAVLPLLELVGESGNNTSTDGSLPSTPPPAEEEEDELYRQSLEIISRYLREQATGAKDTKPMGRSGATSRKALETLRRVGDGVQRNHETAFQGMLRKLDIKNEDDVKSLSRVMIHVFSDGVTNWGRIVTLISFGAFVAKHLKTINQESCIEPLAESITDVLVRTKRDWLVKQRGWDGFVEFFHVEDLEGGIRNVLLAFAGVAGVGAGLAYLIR

CCCCCCCCCCOC(=O)Cn1c(COc2ccccc2)[n+](C)c2ccccc21
EC50 (Streptococcus): 7.89 µM (active) | EC50 [1]: > 60 µM (not active)

N#Cc1c(NC(=O)c2ccc(Br)o2)n(-c2ccccc2)c2nc3ccccc3nc12
IC50 [2]: 96.9 µM (active) | IC50 [3]: 29.1 µM (inactive) | IC50 [4]: 4.55 µM (active) | IC50 (Aminopeptidase N): 22.9 µM (active) | IC50 (Caspase-3): 29.6 µM (active)

CCOC(=O)c1c(-c2ccc(-c3ccccc3)cc2)csc1NC(=O)CNCCN(C)C
AC50 (HepG2): 18.4 µM (active) | EC50 [5]: > 120 µM (not active) | EC50 (Beta-galactosidase): > 40 µM (inactive) | EC50 [6]: 13.7 µM (active) | EC50 [7]: 9.16 µM (active)

COc1cc(-c2nnc(SCc3cc(=O)oc4cc(O)c(O)cc34)o2)cc(OC)c1OC
IC50 (Bcl-2-like protein 10): 0.493 µM (active) | IC50 [8]: 3.77 µM (active)
